From patent US20260306476A1, “ANTIBACTERIAL COMPOUND PBT2” (priority 2022, published 2026)
≈ marks a conversion by molar mass, not a printed value. Entries after “also recorded” stand apart in the source; their conditions may differ.

Experiments:
[1] = test system: Neisseria gonorrhoeae MS11; assay: MIC of PBT2 alone (broth and agar); assay type: cell-based
Text: (§1) 13 multidrug resistant WHO strains of Neisseria gonorrhoeae were selected to cover antimicrobial resistance phenotypes to all the antibiotics currently used. MS11 is a laboratory strain and ATCC49226 is a CLSI standard MIC control strain (CLSI. 2022. Performance Standards for Antimicrobial Susceptibility Testing, 32nd Edition. Clinical and Laboratory Standards Institute which is hereby incorporated by reference in its entirety). The MICs (minimum inhibitory concentration) of PBT2 alone in the absence of zinc or a further antimicrobial agent against these Neisseria gonorrhoea strains are summarised in Table 1.

[2] = test system: Neisseria gonorrhoeae WHO C; assay: MIC of PBT2 alone (broth and agar); assay type: cell-based
Text: as §1

[3] = test system: Neisseria gonorrhoeae WHO E; assay: MIC of PBT2 alone (broth and agar); assay type: cell-based
Text: as §1

[4] = test system: Neisseria gonorrhoeae WHO F; assay: MIC of PBT2 alone (broth and agar); assay type: cell-based
Text: as §1

[5] = test system: Neisseria gonorrhoeae WHO G; assay: MIC of PBT2 alone (broth and agar); assay type: cell-based
Text: as §1

[6] = test system: Neisseria gonorrhoeae WHO K; assay: MIC of PBT2 alone (broth and agar); assay type: cell-based
Text: as §1

[7] = test system: Neisseria gonorrhoeae WHO L; assay: MIC of PBT2 alone (broth and agar); assay type: cell-based
Text: as §1

[8] = test system: Neisseria gonorrhoeae WHO M; assay: MIC of PBT2 alone (broth and agar); assay type: cell-based
Text: as §1

[9] = test system: Neisseria gonorrhoeae WHO N; assay: MIC of PBT2 alone (broth and agar); assay type: cell-based
Text: as §1

[10] = test system: Neisseria gonorrhoeae WHO O; assay: MIC of PBT2 alone (broth and agar); assay type: cell-based
Text: as §1

[11] = test system: Neisseria gonorrhoeae WHO P; assay: MIC of PBT2 alone (broth and agar); assay type: cell-based
Text: as §1

[12] = test system: Neisseria gonorrhoeae WHO X; assay: MIC of PBT2 alone (broth and agar); assay type: cell-based
Text: as §1

[13] = test system: Neisseria gonorrhoeae WHO Y; assay: MIC of PBT2 alone (broth and agar); assay type: cell-based
Text: as §1

[14] = test system: Neisseria gonorrhoeae WHO Z; assay: MIC of PBT2 alone (broth and agar); assay type: cell-based
Text: as §1

Neisseria gonorrhoeae [15] = assay: MIC / susceptibility across Neisseria gonorrhoeae strains; assay type: cell-based; conditions: for MIC: Neisseria gonorrhoeae
Text: as §1

[16] = test system: Helicobacter pylori ATCC 43504; assay: MIC of PBT2 alone (agar); assay type: cell-based; conditions: ATCC43504
[17] = test system: Helicobacter pylori CH426; assay: MIC of PBT2 alone (agar); assay type: cell-based
[18] = test system: Helicobacter pylori CH428; assay: MIC of PBT2 alone (agar); assay type: cell-based
Neisseria gonorrhoeae [19] = assay: Antibiotic resistance development test over 30 days; assay type: cell-based; conditions: 30 days of daily subculture; sub-MIC PBT2 (0.156 mg/L)
Procedure: FIG. 2: Antibiotic resistance development assay of PBT2.
Resistance development was tested over a 30 day period with PBT2 and using Kanamycin as a control.

[20] = human; 250 mg/day for up to 72 hours; NCT02249728; cited from earlier work
[21] = cited from earlier work
[22] = test system: Streptococcus uberis (S. uberis); conditions: in the absence of an antibiotic; cited from earlier work
[23] = test system: erythromycin-resistant group A Streptococcus (GAS); conditions: in the absence of an antibiotic; cited from earlier work
[24] = test system: methicillin-resistant Staphylococcus aureus (MRSA); conditions: in the absence of an antibiotic; cited from earlier work
[25] = test system: gram-positive and gram-negative bacteria; conditions: PBT2 in the presence of zinc; cited from earlier work
[26] = test system: Neisseria meningitidis Z2491 (A); assay: MIC of PBT2 (broth and agar)
[27] = test system: Neisseria meningitidis MC58 (B); assay: MIC of PBT2 (broth and agar)
[28] = test system: Neisseria meningitidis 8013 (C); assay: MIC of PBT2 (broth and agar)
[29] = test system: Neisseria meningitidis PMC2 (Z/29E); assay: MIC of PBT2 (broth and agar)
[30] = test system: Neisseria meningitidis PMC10 (Y); assay: MIC of PBT2 (broth and agar)
[31] = test system: Neisseria meningitidis PMC19 (W); assay: MIC of PBT2 (broth and agar)
Neisseria meningitidis = assay: MIC / susceptibility across Neisseria meningitidis strains; conditions: all strains tested; for MIC: Neisseria meningitidis

Question: What does the source list for `CN(C)Cc1ccc2c(Cl)cc(Cl)c(O)c2n1` [PBT2, 5,7-dichloro-2-[(dimethylamino)methyl]quinolin-8-ol]?
Answer: MIC ([1]; agar): 0.625 µg/mL; MIC ([1]; broth): 0.156 µg/mL; MIC ([2]; agar): 0.625 µg/mL; MIC ([2]; broth): 0.312 µg/mL; MIC ([3]; agar): 0.312 µg/mL; MIC ([3]; broth): 0.156 µg/mL; MIC ([4]; agar): 0.312 µg/mL; MIC ([4]; broth): 0.156 µg/mL; MIC ([5]; agar): 0.312 µg/mL; MIC ([5]; broth): 0.156 µg/mL; MIC ([6]; agar): 0.625 µg/mL; MIC ([6]; broth): 0.312 µg/mL; MIC ([7]; agar): 0.625 µg/mL; MIC ([7]; broth): 0.156 µg/mL; MIC ([8]; agar): 0.625 µg/mL; MIC ([8]; broth): 0.312 µg/mL; MIC ([9]; agar): 0.625 µg/mL; MIC ([9]; broth): 0.156 µg/mL; MIC ([10]; agar): 0.625 µg/mL; MIC ([10]; broth): 0.156 µg/mL; MIC ([11]; agar): 0.625 µg/mL; MIC ([11]; broth): 0.312 µg/mL; MIC ([12]; agar): 0.625 µg/mL; MIC ([12]; broth): 0.156 µg/mL; MIC ([13]; agar): 0.625 µg/mL; MIC ([13]; broth): 0.156 µg/mL; MIC ([14]; MIC concentration used in time-kill assay): 0.313 µg/mL; MIC ([14]; agar): 0.625 µg/mL; MIC ([14]; broth): 0.312 µg/mL; MIC (Neisseria gonorrhoeae [15]; MDR Neisseria gonorrhoeae): 0.313 µg/mL (≈ 1.15 µM); MIC (Neisseria gonorrhoeae [15]; all strains tested, agar, PBT2 alone): 0.312 to 0.625 µg/mL (≈ 1.15 to 2.31 µM); MIC (Neisseria gonorrhoeae [15]; all strains tested, broth, PBT2 alone): 0.156 to 0.312 µg/mL (≈ 0.575 to 1.15 µM); susceptibility (Neisseria gonorrhoeae [15]; all strains tested, PBT2 alone): highly susceptible; MIC [16]: 2.5 µg/mL; MIC [17]: 1.25 µg/mL; MIC [18]: 2.5 µg/mL; antibiotic resistance development (Neisseria gonorrhoeae [19]): No antibiotic resistance was observed; also recorded: no visible development of resistance; plasma drug level (AUC) [20]: 1,660 ng*h/ml; safety and tolerability ([21]; 250 mg daily for up to 12 months, without serious side effects or withdrawal symptoms): safe and well-tolerated, without serious side effects or withdrawal symptoms; safety ([21]; data from phase II clinical trials): safe-for-human-use; antibacterial activity [22]: neither PBT2 nor zinc alone displayed antibacterial activity which would be suitable to treat an infection; antibacterial activity [23]: neither PBT2 nor zinc alone displayed antibacterial activity which would be suitable to treat an infection; antibacterial activity [24]: neither PBT2 nor zinc alone displayed antibacterial activity which would be suitable to treat an infection; susceptibility of bacteria to antibiotics [25]: more susceptible to antibiotics; MIC ([26]; agar): 0.039 µg/mL; MIC ([26]; broth): 0.156 µg/mL; MIC ([27]; agar): 0.039 µg/mL; MIC ([27]; broth): 0.156 µg/mL; MIC ([28]; agar): 0.078 µg/mL; MIC ([28]; broth): 0.156 µg/mL; MIC ([29]; agar): 0.039 µg/mL; MIC ([29]; broth): 0.156 µg/mL; MIC ([30]; agar): 0.156 µg/mL; MIC ([30]; broth): 0.625 µg/mL; MIC ([31]; agar): 0.078 µg/mL; MIC ([31]; broth): 0.156 µg/mL; MIC (Neisseria meningitidis; agar): 0.039 to 0.156 µg/mL (≈ 0.144 to 0.575 µM); MIC (Neisseria meningitidis; broth): 0.156 to 0.625 µg/mL (≈ 0.575 to 2.31 µM); sensitivity (Neisseria meningitidis): sensitive
